Columns and labels:
[1] = molecular target: T1, mu opioid receptor (MOR) (Homo sapiens, UniProt P35372); experiment: Hit Hunter cAMP signaling assay (adenylyl cyclase inhibition), PAM mode with EC20 endomorphin-1; format: cell-based
[2] = molecular target: T1, mu opioid receptor (MOR); experiment: PathHunter β-arrestin recruitment assay, PAM mode with EC20 endomorphin-1; format: cell-based; settings: for EC50: read-out: β-arr. EC50
Method in brief: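 β-Arrestin recruitment to the receptor was tracked by chemiluminescent β-galactosidase activity from complementing fragments (ED on receptor, EA on β-arrestin). Per-compound outputs were EC50 and percent maximal response.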

[3] = adenylyl cyclase inhibition, read-out: cAMP EC50
[4] = maximal response for adenylyl cyclase inhibition
[5] = maximal response for β-arrestin recruitment
[6] = cAMP EC50, adenylyl cyclase inhibition

T1 sequence (P35372 whole entry): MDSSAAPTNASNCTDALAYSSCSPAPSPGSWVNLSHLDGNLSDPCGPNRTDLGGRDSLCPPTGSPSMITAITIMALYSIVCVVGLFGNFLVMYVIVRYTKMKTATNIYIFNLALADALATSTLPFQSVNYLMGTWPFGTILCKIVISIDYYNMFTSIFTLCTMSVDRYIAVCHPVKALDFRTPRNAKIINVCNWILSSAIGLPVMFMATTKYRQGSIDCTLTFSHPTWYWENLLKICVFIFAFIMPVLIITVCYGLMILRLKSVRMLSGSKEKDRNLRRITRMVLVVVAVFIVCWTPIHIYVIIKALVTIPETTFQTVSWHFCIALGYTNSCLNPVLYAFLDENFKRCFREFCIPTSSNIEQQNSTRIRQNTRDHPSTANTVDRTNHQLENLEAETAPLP

SMILES	EC50 [1, 3]	cAMP Max. Resp. [1, 4]	β-arr Max. Resp. [2, 5]	EC50 ([2]; β-arrestin recruitment)	EC50 [1, 6]	cAMP Max. Resp. ([1]; maximal response, adenylyl cyclase inhibition)	β-arr Max. Resp. ([2]; maximal response, β-arrestin recruitment)
O=S(=O)(Cc1ccccc1)N1C2CCC(C2)C1c1ccc(F)c(Br)c1 (stereo not shown) [Compound 182]	> 2100 nM	D (D represents a maximal response of < 40%)	E (E represents a maximal response of 40-60%)	> 2100 nM	–	–	–
CC[C@@H]1CCCN(c2nc(Cl)ncc2F)[C@@H]1c1ccc(OC)c(Br)c1 (relative stereo) [compound 250]	–	D (D represents a maximal response of < 40%)	F (F represents a maximal response of > 60%)	> 2100 nM	> 2100 nM	–	–
[2H]C1(c2ccc(F)c(Br)c2)C(F)CCCN1S(=O)(=O)Cc1ccc(Cl)cc1 (stereo not shown) [Compound 33]	–	D (D represents a maximal response of < 40%)	F (F represents a maximal response of > 60%)	–	–	–	–
Fc1ccc(Cl)nc1C1CCCCN1c1nc(Cl)ncc1F (stereo not shown) [compound 388]	–	D (D represents a maximal response of < 40%)	D (D represents a maximal response of < 40%)	< 700 nM	< 700 nM	–	–
[2H]C1(c2ccc(F)c(Br)c2)C(F)CCCN1S(=O)(=O)c1ccc(Cl)cc1 (stereo not shown) [Compound 29]	–	E (E represents a maximal response of 40-60%)	F (F represents a maximal response of > 60%)	–	–	–	–
Fc1cc(C2CCC(F)CN2c2nc(Cl)ncc2F)cc(C(F)(F)F)c1 (stereo not shown) [compound 313]	700 to 2100 nM	E (E represents a maximal response of 40-60%)	F (F represents a maximal response of > 60%)	> 2100 nM	–	–	–
COc1ccc(C2N(S(=O)(=O)c3ccc(Cl)cc3)CCC2(F)F)cc1Br (racemic) [Compound 85]	> 2100 nM	D (D represents a maximal response of < 40%)	D (D represents a maximal response of < 40%)	> 2100 nM	–	–	–
Fc1cnc(Cl)nc1N1CCCCC1c1ccc(Cl)c(C(F)(F)F)c1 (single isomer, unassigned) [compound 348]	–	D (D represents a maximal response of < 40%)	D (D represents a maximal response of < 40%)	< 700 nM	–	–	–
CC1CC(c2cccc(C(F)(F)F)n2)N(c2nc(Cl)ncc2F)C1 (single isomer, unassigned) [compound 221]	> 2100 nM	D (D represents a maximal response of < 40%)	D (D represents a maximal response of < 40%)	> 2100 nM	–	–	–
Fc1cnc(Cl)nc1N1CC(F)CC1c1cccc(C(F)(F)F)n1 (stereo not shown) [compound 481]	> 2100 nM	–	–	> 2100 nM	–	D (D represents a maximal response of < 40%)	D (D represents a maximal response of < 40%)
CS(=O)(=O)N1CCN(c2nc(Cl)ncc2F)C(c2cc(F)cc(C(F)(F)F)c2)C1 (racemic) [Compound 309]	> 2100 nM	D (D represents a maximal response of < 40%)	E (E represents a maximal response of 40-60%)	> 2100 nM	–	–	–
Cc1ccc(C2CCCCN2c2nc(Cl)ncc2F)cn1 (stereo not shown) [compound 411]	–	D (D represents a maximal response of < 40%)	D (D represents a maximal response of < 40%)	< 700 nM	< 700 nM	–	–
O=c1[nH]c2ccc(C3CCCCN3c3nc(Cl)ncc3F)cc2o1 (stereo not shown) [compound 279]	–	F (F represents a maximal response of > 60%)	D (D represents a maximal response of < 40%)	> 2100 nM	> 2100 nM	–	–
COc1ccc(C2CCCCN2S(=O)(=O)c2ccc(C)cc2)cc1Br (stereo not shown) [compound 12]	–	E (E represents a maximal response of 40-60%)	F (F represents a maximal response of > 60%)	> 2100 nM	700 to 2100 nM	–	–
Fc1cccc(C2CCCCN2c2nc(Cl)ccc2F)n1 (stereo not shown) [compound 264]	–	F (F represents a maximal response of > 60%)	E (E represents a maximal response of 40-60%)	> 2100 nM	700 to 2100 nM	–	–

Source: patent US11071731B2, “Allosteric modulators of the mu opioid receptor” (Chiromics, LLC, priority 2017, dated 2021)
